Biological target: Nurr1 (nuclear receptor related 1 protein) (Homo sapiens, UniProt P43354)
Assay: tryptophan fluorescence quenching
Format: binding

Chain of Nurr1 (nuclear receptor related 1 protein) (P43354 352-598): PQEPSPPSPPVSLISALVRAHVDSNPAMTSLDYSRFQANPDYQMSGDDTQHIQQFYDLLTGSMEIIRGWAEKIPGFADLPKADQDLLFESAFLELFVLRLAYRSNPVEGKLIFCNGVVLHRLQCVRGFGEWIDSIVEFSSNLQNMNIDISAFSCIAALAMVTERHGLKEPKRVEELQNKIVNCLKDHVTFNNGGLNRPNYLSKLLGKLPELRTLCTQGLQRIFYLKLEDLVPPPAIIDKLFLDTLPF

SMILES	Kd [µM]
CCCCC/C=C\C/C=C\CCCCCCCC(=O)O [LA, linoleic acid]	101 ± 13
CCCCCCCC/C=C\CCCCCCCC(=O)O [OA, oleic acid]	59 ± 15

From paper PMC6318021 (Structure (London, England : 1993), 2018)
